Data published in patent US8440849B2, “Use of nitroaniline derivatives for the production of nitric oxide” (STMicroelectronics S.r.l., priority 2006, dated 2013).

Test: NO photo-release, fluorimetric DAN (2,3-diaminonaphthalene) assay measuring nitrite levels
Details: for NO release after irradiation (presence of nitrites, fluorescent spectrum): 350 nm, 8 lamps
Source text: It allows the indirect determination of NO by measuring nitrite levels. In particular, NO is an highly reactive gas that, in the presence of water, forms an equimolar mixture of nitrites and nitrates. Nitrites, reacting with a DAN (2,3-diaminonaphtalene) solution in the presence of an acid, form 1-naphthotriazole, a highly fluorescent compound having a characteristic UV absorbance.
Therefore, the solution of 4-nitro-3-(trifluoromethyl)aniline in methanol after irradiation was dried and then the recovered 4-nitro-3-(trifluoromethyl)aniline was re-dissolved with water and phosphate buffer 0.1 M (pH 7.4). 150 μl of a DAN solution were added to the solution of 4-nitro-3-(trifluoromethyl)aniline heating at 50° C. for 40 minutes. Subsequently, 150 μl of concentrated NaOH was added in order to obtain naphthotriazole ions according to the scheme below.
300 μl of a DAN saturated solution in HCl 0.6 M were added to 3 ml of the irradiated solution of 10-(3-(trifluoromethyl)-4-Nitrophenylamino)decan-1-thiol followed by heating at 50° C. for 20 minutes.
Subsequently, 1 ml of NaOH was added to 1 ml of the solution in order to obtain naphthotriazole ions.
The NO photo-release of the nanoparticles functionalized with 1043-(trifluoromethyl)-4-Nitrophenylamino)decan-1-thiol was measured using fluorimetric assay based on 2,3-diaminonaphthalene (DAN) [T. P. Misko, R. J. Schilling, D. Salvemini, W. M. Moore, M. G. Currie, Anal. […]], as shown in Examples 1 and 2 (FIG. 8).

## Nc1ccc([N+](=O)[O-])c(C(F)(F)F)c1 [4-nitro-3-(trifluoromethyl)aniline]
Methanol solution, 2 hours, DAN, phosphate buffer pH 7.4, FIG. 4
  NO release after irradiation (presence of nitrites, fluorescent spectrum): formation of NO

## O=[N+]([O-])c1ccc(NCCCCCCCCCCS)cc1C(F)(F)F [10-(3-(trifluoromethyl)-4-Nitrophenylamino)decan-1-thiol]
CH3OH:H2O (10%) solution, 35 minutes, DAN in HCl 0.6 M, FIG. 6
  NO release after irradiation (presence of nitrites, fluorescent spectrum): formation of NO
Fluorimetric DAN assay, FIG. 8
  NO photo-release profile (trend of the curve): linear behavior
